Experimental data: article PMC6906394, “Radiomodifying action, Pharmacokinetic and Biodistribution of Ethyl 3, 4, 5-trihydroxybenzoate-Implication in development of radiomitigator” (Scientific Reports, 2019)
Like-named read-outs stand apart in the source and are kept apart here.

Tests used:
[1] = Stability of GAE in mice plasma and liver homogenate (QC samples); assay type: in vitro ADME; conditions: for Stability % Long term: 2 week of storage at −20 °C; for freeze-thaw stability (fraction remaining) at 50 ng/mL / freeze-thaw stability (fraction remaining) at 250 ng/mL / freeze-thaw stability (fraction remaining) at 500 ng/mL: mouse, three consecutive freeze thaw cycles (−20 °C to room temperature)
Protocol: The recovery of GAE at three concentration was 79.3, 89.6 and 99.2% in plasma. […] The analyte were also shown to be stable in the plasma at room temperature for atleast 8 h with a reduction of less than 12–15% (Table 1). Based on the result reliable, reproducible and robust method has been developed and validated.
Standard stock solutions of GAE at 1 mg/mL were prepared and dissolved in appropriate amounts of diluent stock, water, and methanol (8:2 v/v). GAE was adequately diluted with diluent stock to give an intermediate solution at 100 µg/mL for each analyte. GAE calibration standards were at concentration of 5, 10, 20, 30, 40, 50, 100, 250, 500 ng/mL. Internal standard propyl gallate (PG) were prepared to spiked aliquots of blank mouse plasma (200 µL). […] combined spiking solution at a final concentration of 5, 10, 20, 40, 50, 100, 250, 500 and 1000 ng/mL were prepared and used to spike aliquots of blank tissue homogenates of Liver, kidney, heart, brain, and spleen (400 µL). The entire sample was stored at 4 °C. Quality control samples were prepared independently in the same biological matrices (plasma and tissue homogenate of liver) stored at −20 °C until use with each analytical run. Intra-day and inter-day precision were assessed by using six replicate QC samples at three levels of GAE included in each run to determine the accuracy and precision. […] The inter-day accuracy and precision were assessed by analyzing three batches on different days. The recoveries of GAE from plasma and tissue (liver) homogenate samples were done at three QC levels. The recovery of the analyte was calculated by comparing the analyte peaks of extracted QC samples against the equivalent aqueous solution.
The QC samples were kept at room temperature for 6 h and a freeze-thaw cycle (−80 °C) was repeated for three times. […] For all storage conditions, replication of three concentrations was analyzed after the operation and the experimental result was obtained through a chromatographic area and compared with the nominal values. On the basis of previous studies reported on pharmacokinetic and biodistribution[22],[23], we standardized and validated our study to further investigate the radiomodifying action of GAE.

[2] = Plasma pharmacokinetics of GAE after single oral administration (HPLC, non-compartmental); assay type: in vivo, mice; conditions: 200 mg/kg b.wt oral; for Cmax / AUC(0-t) / Tmax / half-life / AUC: 200 mg/kg; for Kel: in 1/min; for AUC: read-out: AUC0-α (converted)
Protocol: The developed method was successfully employed to determine GAE concentration in mouse plasma and tissue samples after single oral administration of GAE at a single dose (200 mg/kg body weight) in GAE and Radiation + GAE (R + GAE) treated group. […] Pharmacokinetic parameter analysis is presented in (Table 2, Table 3).
Black C57BL/6 male mice weighing 28–30 g were maintained at the Institutional Animal Experimental Facility. Animals were fed according to standard chow diet having free access to food and water ad libitum. The environmental condition was maintained at room temperature (22 ± 2 °C), relative humidity (45–60%) and 12 h dark/light cycle controlled facility. In this study, mice were randomly assigned to four different groups (n = 21) i.e untreated control (UC), GAE-treated (GAE), Radiation + GAE (R + GAE), Radiation group (R). Mice fasted overnight with free access to water before being dosed. Isolated GAE from leaves was dissolved with distilled water and ethanol in (7:3 v/v) and administered orally at a dose of 200 mg/kg body weight to GAE-treated and R + GAE treated groups only. The experiment was carried out in accordance to regulation and guideline of the, Committee for the purpose of control and supervision of Experiments on animals (CPCSEA), and study was approved by Institutional Animal Experimental Committee (IAEC), Institute of Nuclear Medicine & Allied Science, Delhi, India.
Group I untreated control (UC), Group II GAE-treated (GAE), Group III Radiation + GAE (R + GAE) and Group IV Radiation (R) exposed. The GAE was administered orally 15 min post irradiation. The whole-body radiation (5 Gy) was carried out using Bhabahtron II, Telecobalt machine, Panacea medical technology, Bangalore. The mice exposed at a dose rate of 0.961 Gy/min at field 35 × 35 cm^2 and the distance maintained from the source was 80 cm.
Blood and tissues samples of mice were collected at 15 min, 30 min, 1 h, 2 h, 4 h, 8 h and 24 h after GAE administration (3mice per time). Blood was obtained from retro orbital plexus of mice and collected in heparinized eppendorf tubes, followed by centrifugation at 2500 g for 15 min. The resulting plasma layer was separated and stored in tubes at −20 °C for further analysis. Tissue samples (brain, heart, liver, kidney, and spleen) were weighed and put into the normal saline solution to remove the blood by blotting on filter paper and were minced and homogenized with physiological saline solution (1:2 w/v) thoroughly in an ice bath. The homogenates were stored at −80 °C until the analysis.
Aliquot of plasma sample (100 µL) dispensed in standing vial deproteinized with ACN (200 µL) containing the IS (100 ng/mL) and centrifuged at 2500 g for 15 min at 4 °C. The supernatant was collected transferred to a clean glass tube, reconstituted with 200 µL mobile phase vortexed mixed for 2 min and centrifuged at 2500 g for 5 min. Following this, a 20 µL aliquot of supernatant was injected into the HPLC system for analysis.
GAE was separated on the high-performance liquid chromatography (HPLC), SPD-10A consisting of binary HPLC pump, ultraviolet detector, and a Rheodyne manual injector equipped with a 20 µl loop (Shimadzu, Japan). Separation was achieved on Kinetex Biphenyl RP 100 Å column (2.6 µm, 150 × 4.6 mm) (Phenomenex, Torrance) installed with phenyl cartridges (Phenomenex, Torrance). The system was controlled using class VP software (Shimadzu, Japan). The chromatographic separation of GAE was in approximately within 10 min, at room temperature by using the isocratic mobile phase mixture of ACN and 1%OPA (30:70, v/v) with pH maintained at 3.3. 20 µL of the samples were injected at a flow rate of 0.5 mL/min and the wavelength 270 nm was used for detection. […]

[3] = R + GAE group (60Co-γ 5 Gy, GAE 15 min post irradiation)
[4] = male, C57BL/6, mouse, po, GAE treated group
[5] = male, C57BL/6, mouse, po, R + GAE group (60Co-γ 5 Gy, GAE 15 min post irradiation)

CCOC(=O)c1cc(O)c(O)c(O)c1 [GAE, Ethyl 3,4,5-trihydroxybenzoate]
reduction after freeze-thaw cycle ([1]; freeze-thaw cycle): less than 8% | Stability % Long term ([1]; liver, 50 ng/mL): 62.6 ± 24.5% | Stability % Short term ([1]; liver, 50 ng/mL, room temperature for 24 h): 66.9 ± 22.18% | Stability % Long term ([1]; liver, 250 ng/mL): 79.26 ± 6.06% | Stability % Short term ([1]; liver, 250 ng/mL, room temperature for 24 h): 86.8 ± 1.7% | Stability % Long term ([1]; liver, 500 ng/mL): 95.13 ± 7.6% | Stability % Short term ([1]; liver, 500 ng/mL, room temperature for 24 h): 99.9 ± 0.47% | freeze-thaw stability (fraction remaining) at 50 ng/mL ([1]; liver homogenate, liver, 50 ng/mL): 0.648 ± 0.049 | freeze-thaw stability (fraction remaining) at 250 ng/mL ([1]; liver homogenate, liver, 250 ng/mL): 0.842 ± 0.025 | freeze-thaw stability (fraction remaining) at 500 ng/mL ([1]; liver homogenate, liver, 500 ng/mL): 0.978 ± 0.049 | freeze-thaw stability (fraction remaining) at 50 ng/mL ([1]; plasma, 50 ng/mL): 0.79 ± 0.0225 | freeze-thaw stability (fraction remaining) at 250 ng/mL ([1]; plasma, 250 ng/mL): 0.901 ± 0.0093 | freeze-thaw stability (fraction remaining) at 500 ng/mL ([1]; plasma, 500 ng/mL): 0.9342 ± 0.0037 | Stability % Long term ([1]; plasma, 50 ng/mL): 70.32 ± 1.37% | Stability % Short term ([1]; plasma, 50 ng/mL, room temperature for 24 h): 79.35 ± 1.37% | Stability % Long term ([1]; plasma, 250 ng/mL): 87.55 ± 0.635% | Stability % Short term ([1]; plasma, 250 ng/mL, room temperature for 24 h): 89.67 ± 1.58% | Stability % Long term ([1]; plasma, 500 ng/mL): 92.01 ± 0.179% | Stability % Short term ([1]; plasma, 500 ng/mL, room temperature for 24 h): 99.25 ± 0.120% | reduction in plasma at room temperature ([1]; plasma, room temperature for at least 8 h): 12–15% | stability at room temperature ([1]; room temperature for 24 h, plasma and tissue samples): stable | stability at −20 °C ([1]; −20 °C for one month): stable | Clearance ([2]; GAE treated group): 0.017 ± 0.0005 mL/min | Cmax ([2]; GAE treated group): 4390.85 ± 285.20 ng/mL | Kel ([2]; GAE treated group): 0.026 ± 0.003 | Clearance [2, 3]: 0.07 ± 0.01 mL/min | Kel [2, 3]: 0.025 ± 0.02 | AUC(0-t) [2, 4]: 2920 ng·h/mL | Tmax [2, 4]: ~15 min | half-life [2, 4]: 26.5 ± 3.2 min | AUC [2, 4]: 2930 ng·h/mL | Cmax ([2]; male, C57BL/6, mouse, po, GAE treated group, read-out: Cmax): 4390 ± 285 ng/mL | AUC(0-t) [2, 5]: 1070 ng·h/mL | Tmax [2, 5]: ~15 min | half-life [2, 5]: 22.4 ± 3.6 min | AUC [2, 5]: 1070 ng·h/mL | Cmax ([2]; male, C57BL/6, mouse, po, R + GAE group (60Co-γ 5 Gy, GAE 15 min post irradiation), read-out: Cmax): 3390 ± 78.1 ng/mL
